Results published in article PMC5034536, “Molecular insights into substrate recognition and catalytic mechanism of the chaperone and FKBP peptidyl-prolyl isomerase SlyD” (BMC Biology, 2016).
Values joined by “and” are separate entries in the source; they are usually repeats but may differ in a detail not shown here. Equal values may be shown once. Read-outs that look alike come from different tables or passages of the source. No end group written: not given here.

Assays:
[1] = target: T1, TtSlyDFL (full-length SlyD from Thermus thermophilus) (Thermus thermophilus, UniProt Q5SLE7); experiment: ITC binding of peptides to full-length TtSlyD; details: for ΔH1 / –T · ΔS1 / N1: site 1 (IF domain)
T1 sequence (Q5SLE7 1-149): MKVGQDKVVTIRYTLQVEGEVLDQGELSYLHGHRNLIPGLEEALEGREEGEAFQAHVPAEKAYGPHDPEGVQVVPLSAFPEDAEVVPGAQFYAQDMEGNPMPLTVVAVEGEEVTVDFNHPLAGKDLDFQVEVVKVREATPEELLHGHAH
Description: ITC measurements were performed on iTC200 or VP-ITC instruments (GE Healthcare, Chalfont St. Giles, UK). The calorimetric cell (with a total cell volume of 220 μl in the iTC200, or 1400 μl in the VP-ITC) contained 50–200 μM TtSlyDFL dissolved in 20 mM HEPES, 100 mM NaCl, pH 7.5. Peptide samples of 700–2000 μM were titrated into the cell at 20 °C (VP-ITC) or 25 °C (iTC200). The heat generated after each ligand injection was obtained by integration of the calorimetric signal. Resulting binding isotherms were analyzed according to a one-site or two-site binding site model using the Origin software (OriginLab Corp., Northampton, MA, USA).

[2] = target: TtSlyDΔIF (IF domain replaced by the flap loop from human FKBP12) (Thermus thermophilus, UniProt Q5SLE7); format: binding; details: ITC one-site model (FKBP domain), 25 °C; for Kd: read-out: KD2
[3] = Relative population of the cis form of the peptide by NMR; format: physicochemical; details: free S2-P25A peptide with 13C-labeled proline (P29); comparison of cis and trans NMR intensities; 25 °C
Description: (§1) Having validated the method, we next turned to the longer unmodified peptides of interest here. […] The ^13C shifts of proline in the S2-P25A peptide show the same characteristics as an isolated proline amino acid. […] We determined apparent rate constants for TtSlyDFL and TtSlyDΔIF as a function of peptide concentration (Fig. 7b). The resulting kcat/KM value was 368 ± 4 μM^–1s^–1 for TtSlyDFL, which is a factor of 100–1000 higher compared to results obtained previously for various members of the SlyD family using tetrapeptides or unfolded proteins, and even exceeds those generally reported for FKBPs and other PPIases. […] However, the difference in kcat/KM between TtSlyDFL and TtSlyDΔIF is much smaller than what has been observed using protein substrates, and may simply relate to the lower binding affinity of TtSlyDΔIF relative to TtSlyDFL (in this scenario, KM would be larger for TtSlyDΔIF). In the case of TtSlyDFL we could separate the two parameters, yielding kcat = (0.7 ± 0.1) 10^6 s^–1 and KM = 2.0 ± 0.4 mM.
Activity studies using the 15-residue-long S2-P25A peptide utilized a sample with a uniformly ^13C-labeled proline residue. ^1H–^13C HSQC experiments were used to separate the peptide signals in two dimensions, such that the cis and trans forms could both be detected without overlap. […]

[4] = test system: TtSlyDFL; experiment: Michaelis-Menten analysis with S2-P25A peptide by NMR lineshape analysis; format: biochemical, Thermus thermophilus; details: 25 °C
Description: as §1
(§2) Lineshape analysis was performed using MATLAB.
(§3) Activity studies using the 15-residue-long S2-P25A peptide utilized a sample with a uniformly ^13C-labeled proline residue. ^1H–^13C HSQC experiments were used to separate the peptide signals in two dimensions, such that the cis and trans forms could both be detected without overlap. […] One-dimensional ^1H slices of the β and γ protons for the cis and trans forms were extracted from the two-dimensional spectrum, and lineshape analysis was applied. Michaelis-Menten-like studies were performed using a fixed concentration of TtSlyDFL of 0.2 μM and peptide concentrations ranging from 10 to 1000 μM.

[5] = test system: TtSlyDΔIF; experiment: as above; format: biochemical, Thermus thermophilus; details: 25 °C
Description: as §1, §2, §3

[6] = ITC two-site model, site 2 (FKBP domain) stoichiometry, 25 °C
[7] = ITC two-site model, site 2 (FKBP domain), 25 °C
[8] = ITC single binding site model, 25 °C
[9] = ITC two-site model, 25 °C, 5 % DMSO
[10] = ITC two-site model, site 2 (FKBP domain), 25 °C, 5 % DMSO
[11] = ITC two-site model, 20 °C, wild-type TtSlyDFL
[12] = ITC two-site model, site 2 (FKBP domain), 20 °C, wild-type TtSlyDFL
[13] = S2-P25A peptide as substrate, NMR lineshape analysis

KMKPFIFGARNKVHI-NH2 [S2-plus2]
ΔH1 ([1]; ITC two-site model, 25 °C): –13.1 ± 0.14 kcal/mol | –T · ΔS1 ([1]; ITC two-site model, 25 °C): 3.9 kcal/mol | N2 [1, 6]: 0.75 ± 0.04 | ΔH2 [1, 7]: –8.4 ± 0.39 kcal/mol | –T · ΔS2 [1, 7]: 1.2 kcal/mol

GHQTRYWNPKMKPFI-NH2 [S2-minus1]
ΔH1 ([1]; ITC two-site model, 25 °C): –16.6 ± 0.12 kcal/mol | –T · ΔS1 ([1]; ITC two-site model, 25 °C): 8.2 kcal/mol | N2 [1, 6]: 0.82 ± 0.02 | ΔH2 [1, 7]: –11.1 ± 0.29 kcal/mol | –T · ΔS2 [1, 7]: 4.1 kcal/mol

KAGVHFGHQTRYWNP-NH2 [S2-minus3]
ΔH1 ([1]; ITC two-site model, 25 °C): –17.0 ± 0.73 kcal/mol | –T · ΔS1 ([1]; ITC two-site model, 25 °C): 9.4 kcal/mol | N2 [1, 6]: 1.17 ± 0.06 | ΔH2 [1, 7]: –2.1 ± 1.41 kcal/mol | –T · ΔS2 [1, 7]: –4.8 kcal/mol

WNPKMKPFIFGARNK-NH2 [S2-plus1]
ΔH1 ([1]; ITC two-site model, 25 °C): –11.4 ± 0.13 kcal/mol | –T · ΔS1 ([1]; ITC two-site model, 25 °C): 2.3 kcal/mol | N2 [1, 6]: 0.94 ± 0.03 | ΔH2 [1, 7]: –7.8 ± 0.23 kcal/mol | –T · ΔS2 [1, 7]: 0.4 kcal/mol

SGLVTRGS-NH2 [SlpA linker P5T]
Kd [1]: 130 ± 20 µM | N2 [1, 8]: 1.76 ± 0.12 | ΔH2 [1, 8]: –0.9 ± 0.10 kcal/mol | –T · ΔS2 [1, 8]: –4.4 kcal/mol

TRYWNPKMKEFIFGA-NH2 [S2-P29E]
N2 [2]: 0.69 ± 0.03 | ΔH2 [2]: –10.8 ± 0.27 kcal/mol | –T · ΔS2 [2]: 4.2 kcal/mol | Kd [2]: 13.8 ± 0.88 µM | ΔH1 ([1]; ITC two-site model, 25 °C): –15.8 ± 0.16 kcal/mol | –T · ΔS1 ([1]; ITC two-site model, 25 °C): 7.2 kcal/mol | N2 [1, 6]: 1.02 ± 0.04 | ΔH2 [1, 7]: –2.7 ± 0.48 kcal/mol | –T · ΔS2 [1, 7]: –4.5 kcal/mol

TRYWNNKMKNFIFGA-NH2 [S2-P25N/P29N]
N1 [1, 9]: 0.93 ± 0.02 | ΔH1 [1, 9]: –16.8 ± 0.12 kcal/mol | –T · ΔS1 [1, 9]: 7.8 kcal/mol | N2 [1, 10]: 1.18 ± 0.18 | ΔH2 [1, 10]: –2.3 ± 0.33 kcal/mol | –T · ΔS2 [1, 10]: –4.4 kcal/mol

RYWNPKMKPFIFG-NH2 [S2-short2]
N1 [1, 11]: 0.72 ± 0.03 | ΔH1 [1, 11]: –9.7 ± 0.21 kcal/mol | –T · ΔS1 [1, 11]: 0.9 kcal/mol | N2 [1, 12]: 0.91 ± 0.02 | ΔH2 [1, 12]: –5.5 ± 0.34 kcal/mol | –T · ΔS2 [1, 12]: –1.9 kcal/mol

VHFGHQTRYWNPKMK-NH2 [S2-minus2]
ΔH1 ([1]; ITC two-site model, 25 °C): –16.1 ± 0.21 kcal/mol | –T · ΔS1 ([1]; ITC two-site model, 25 °C): 8.1 kcal/mol | N2 [1, 6]: 0.99 ± 0.06 | ΔH2 [1, 7]: –4.3 ± 0.92 kcal/mol | –T · ΔS2 [1, 7]: –2.3 kcal/mol

TRYANPKMKPFIFGA-NH2 [S2-W23A]
N2 [2]: 0.77 ± 0.02 | ΔH2 [2]: –8.1 ± 0.25 kcal/mol | –T · ΔS2 [2]: 1.6 kcal/mol | Kd [2]: 17.1 ± 1.13 µM | ΔH1 ([1]; ITC two-site model, 25 °C): –15.8 ± 0.24 kcal/mol | –T · ΔS1 ([1]; ITC two-site model, 25 °C): 7.5 kcal/mol | N2 [1, 6]: 0.91 ± 0.40 | ΔH2 [1, 7]: –2.3 ± 0.97 kcal/mol | –T · ΔS2 [1, 7]: –4.2 kcal/mol

TRYWNAKMKPFIFGA-NH2 [S2-P25A]
N2 [2]: 0.91 ± 0.01 | ΔH2 [2]: –11.7 ± 0.24 kcal/mol | –T · ΔS2 [2]: 5.0 kcal/mol | Kd [2]: 12.1 ± 0.76 µM | ΔH1 ([1]; ITC two-site model, 25 °C): –16.6 ± 0.16 kcal/mol | –T · ΔS1 ([1]; ITC two-site model, 25 °C): 7.2 kcal/mol | N2 [1, 6]: 1.02 ± 0.04 | ΔH2 [1, 7]: –8.5 ± 0.82 kcal/mol | –T · ΔS2 [1, 7]: 1.5 kcal/mol | relative population of the cis form (cis content) [3]: 14.5 ± 1% | kcat/KM ([4]; S2-P25A as substrate (cis concentration), 0.2 μM enzyme, Michaelis-Menten fitting): 3.68 ± 0.04 10^8 M^−1s^−1 and 3.7 10^8 M^−1s^−1 | kcat ([4]; S2-P25A as substrate): 0.7 ± 0.1 10^6 s^–1 | kcat/KM [4, 13]: 368 ± 4 μM^–1s^–1 | kcat/KM ([5]; S2-P25A as substrate (cis concentration), 0.2 μM enzyme): 2.5 10^8 M^−1s^−1 | kcat/KM [5, 13]: 248 ± 1 μM^–1s^–1

TRYWNAKMKEFIFGA-NH2 [S2-P25A/P29E]
N2 ([2]; 5 % DMSO): 0.84 ± 0.06 | ΔH2 ([2]; 5 % DMSO): –6.3 ± 0.58 kcal/mol | –T · ΔS2 ([2]; 5 % DMSO): 0.1 kcal/mol | Kd ([2]; 5 % DMSO): 29 ± 4.62 µM | N1 [1, 9]: 1.13 ± 0.03 | ΔH1 [1, 9]: –14.1 ± 0.33 kcal/mol | –T · ΔS1 [1, 9]: 6.1 kcal/mol | N2 [1, 10]: 1.09 ± 0.24 | ΔH2 [1, 10]: –5.9 ± 1.91 kcal/mol | –T · ΔS2 [1, 10]: –0.1 kcal/mol

YWNPKMKPFIF-NH2 [S2-short4]
N1 [1, 11]: 0.73 ± 0.24 | ΔH1 [1, 11]: –10.7 ± 2.33 kcal/mol | –T · ΔS1 [1, 11]: 2.7 kcal/mol | N2 [1, 12]: 0.87 ± 0.23 | ΔH2 [1, 12]: –6.3 ± 3.02 kcal/mol | –T · ΔS2 [1, 12]: –0.9 kcal/mol
